Source: US12077503B2, “Substituted cyclic amides and their use as herbicides” (FMC CORPORATION, priority 2015, dated 2024)

Columns and labels:
Format in all cases: in vivo
[1] = tested on: barnyardgrass (Echinochloa crus-galli); assay: Test G Pre-Emergence Protocol; conditions: Echinochloa crus-galli, pre-emergence, 312 h, evaluated after 13 days; for pest or weed control at 15.625 g/ha: 15.625 g ai/ha; for pest or weed control at 15.625 g/ha / pest or weed control at 250 g/ha: read-out: Barnyardgrass damage rating (100=total damage to plant; 0=no damage to plant); for pest or weed control at 62.5 g/ha: 62.5 g ai/ha, 100=total damage to plant, 0=no damage to plant, read-out: Barnyardgrass damage rating; for pest or weed control at 250 g/ha: 250 g ai/ha
How it was run: (§1)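 Visual injury (0–100) at day 13 after a single pre-emergence spray. Rates: 15.625, 62.5, 250 g/ha in acetone–water 50:50 with 0.5% Tween 20. Growth conditions: 24/16° C, 14 h light, 65% humidity.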

corn (Zea mays) [2] = assay: Test G Pre-Emergence Protocol; conditions: Zea mays, pre-emergence, 312 h, evaluated after 13 days; for plant injury at 15.625 g/ha: 15.625 g ai/ha; for plant injury at 15.625 g/ha / plant injury at 250 g/ha: read-out: Corn damage rating (100=total damage to plant; 0=no damage to plant); for plant injury at 62.5 g/ha: 62.5 g ai/ha, 100=total damage to plant, 0=no damage to plant, read-out: Corn damage rating; for plant injury at 250 g/ha: 250 g ai/ha
How it was run: as §1

[3] = tested on: giant foxtail (Setaria faberi); assay: Test G Pre-Emergence Protocol; conditions: Setaria faberi, pre-emergence, 312 h, evaluated after 13 days; for pest or weed control at 15.625 g/ha: 15.625 g ai/ha; for pest or weed control at 15.625 g/ha / pest or weed control at 250 g/ha: read-out: Foxtail, Giant damage rating (100=total damage to plant; 0=no damage to plant); for pest or weed control at 62.5 g/ha: 62.5 g ai/ha, 100=total damage to plant, 0=no damage to plant, read-out: Foxtail, Giant damage rating; for pest or weed control at 250 g/ha: 250 g ai/ha
How it was run: as §1

[4] = tested on: ivy-leaved morning glory (Ipomoea hederacea); assay: Test G Pre-Emergence Protocol; conditions: Ipomoea, pre-emergence, 312 h, evaluated after 13 days; for pest or weed control at 15.625 g/ha: 15.625 g ai/ha; for pest or weed control at 15.625 g/ha / pest or weed control at 250 g/ha: read-out: Morningglory, Ivy-leaved damage rating (100=total damage to plant; 0=no damage to plant); for pest or weed control at 62.5 g/ha: 62.5 g ai/ha, 100=total damage to plant, 0=no damage to plant, read-out: Morningglory, Ivy-leaved damage rating; for pest or weed control at 250 g/ha: 250 g ai/ha
How it was run: as §1

[5] = tested on: redroot pigweed (Amaranthus retroflexus); assay: Test G Pre-Emergence Protocol; conditions: Amaranthus retroflexus, pre-emergence, 312 h, evaluated after 13 days; for pest or weed control at 15.625 g/ha: 15.625 g ai/ha; for pest or weed control at 15.625 g/ha / pest or weed control at 250 g/ha: read-out: Pigweed, Redroot damage rating (100=total damage to plant; 0=no damage to plant); for pest or weed control at 62.5 g/ha: 62.5 g ai/ha, 100=total damage to plant, 0=no damage to plant, read-out: Pigweed, Redroot damage rating; for pest or weed control at 250 g/ha: 250 g ai/ha
How it was run: as §1

[6] = tested on: velvetleaf (Abutilon theophrasti); assay: Test G Pre-Emergence Protocol; conditions: Abutilon theophrasti, pre-emergence, 312 h, evaluated after 13 days; for pest or weed control at 15.625 g/ha: 15.625 g ai/ha; for pest or weed control at 15.625 g/ha / pest or weed control at 250 g/ha: read-out: Velvetleaf damage rating (100=total damage to plant; 0=no damage to plant); for pest or weed control at 62.5 g/ha: 62.5 g ai/ha, 100=total damage to plant, 0=no damage to plant, read-out: Velvetleaf damage rating; for pest or weed control at 250 g/ha: 250 g ai/ha
How it was run: as §1

[7] = tested on: barnyardgrass (Echinochloa crus-galli); assay: Test G Post-Emergence Protocol; conditions: Echinochloa crus-galli, post-emergence, 312 h, read-out: Barnyardgrass damage rating; for pest or weed control at 15.625 g/ha: 15.625 g ai/ha, evaluated after 13 days (100=total damage to plant; 0=no damage to plant); for pest or weed control at 62.5 g/ha: 62.5 g ai/ha; for pest or weed control at 62.5 g/ha / pest or weed control at 250 g/ha: evaluated after 13 days, 100=total damage to plant, 0=no damage to plant; for pest or weed control at 250 g/ha: 250 g ai/ha
How it was run: (§2)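 Pot-grown seedlings, 8 days old, raised in a glasshouse at 24/16 °C day/night with 14 h light and 65% humidity, were sprayed post-emergence with test compound in acetone/water (50:50) plus 0.5% Tween 20 at 15.625, 62.5 or 250 g/ha. Damage was scored visually 13 days later on a 0–100 scale (100 = total damage).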

corn (Zea mays) [8] = assay: Test G Post-Emergence Protocol; conditions: Zea mays, post-emergence, 312 h, read-out: Corn damage rating; for plant injury at 15.625 g/ha: 15.625 g ai/ha, evaluated after 13 days (100=total damage to plant; 0=no damage to plant); for plant injury at 62.5 g/ha: 62.5 g ai/ha; for plant injury at 62.5 g/ha / plant injury at 250 g/ha: evaluated after 13 days, 100=total damage to plant, 0=no damage to plant; for plant injury at 250 g/ha: 250 g ai/ha
How it was run: as §2

[9] = tested on: giant foxtail (Setaria faberi); assay: Test G Post-Emergence Protocol; conditions: Setaria faberi, post-emergence, 312 h, read-out: Foxtail, Giant damage rating; for pest or weed control at 15.625 g/ha: 15.625 g ai/ha, evaluated after 13 days (100=total damage to plant; 0=no damage to plant); for pest or weed control at 62.5 g/ha: 62.5 g ai/ha
How it was run: as §2

[10] = tested on: ivy-leaved morning glory (Ipomoea hederacea); assay: Test G Post-Emergence Protocol; conditions: Ipomoea, post-emergence, 312 h, read-out: Morningglory, Ivy-leaved damage rating; for pest or weed control at 15.625 g/ha: 15.625 g ai/ha, evaluated after 13 days (100=total damage to plant; 0=no damage to plant); for pest or weed control at 62.5 g/ha: 62.5 g ai/ha; for pest or weed control at 62.5 g/ha / pest or weed control at 250 g/ha: evaluated after 13 days, 100=total damage to plant, 0=no damage to plant; for pest or weed control at 250 g/ha: 250 g ai/ha
How it was run: as §2

[11] = tested on: redroot pigweed (Amaranthus retroflexus); assay: Test G Post-Emergence Protocol; conditions: Amaranthus retroflexus, post-emergence, 312 h, read-out: Pigweed, Redroot damage rating; for pest or weed control at 15.625 g/ha: 15.625 g ai/ha, evaluated after 13 days (100=total damage to plant; 0=no damage to plant); for pest or weed control at 62.5 g/ha: 62.5 g ai/ha; for pest or weed control at 62.5 g/ha / pest or weed control at 250 g/ha: evaluated after 13 days, 100=total damage to plant, 0=no damage to plant; for pest or weed control at 250 g/ha: 250 g ai/ha
How it was run: as §2

[12] = tested on: velvetleaf (Abutilon theophrasti); assay: Test G Post-Emergence Protocol; conditions: Abutilon theophrasti, post-emergence, 312 h, read-out: Velvetleaf damage rating; for pest or weed control at 15.625 g/ha: 15.625 g ai/ha, evaluated after 13 days (100=total damage to plant; 0=no damage to plant); for pest or weed control at 62.5 g/ha: 62.5 g ai/ha; for pest or weed control at 62.5 g/ha / pest or weed control at 250 g/ha: evaluated after 13 days, 100=total damage to plant, 0=no damage to plant; for pest or weed control at 250 g/ha: 250 g ai/ha
How it was run: as §2

[13] = evaluated after 13 days, 100=total damage to plant, 0=no damage to plant

SMILES | pest or weed control at 15.625 g/ha [1] [%] | pest or weed control at 62.5 g/ha [1] [%] | pest or weed control at 250 g/ha [1] [%] | plant injury at 15.625 g/ha (corn (Zea mays) [2]) [%] | plant injury at 62.5 g/ha (corn (Zea mays) [2]) [%] | plant injury at 250 g/ha (corn (Zea mays) [2]) [%] | pest or weed control at 15.625 g/ha [3] [%] | pest or weed control at 62.5 g/ha [3] [%] | pest or weed control at 250 g/ha [3] [%] | pest or weed control at 15.625 g/ha [4] [%] | pest or weed control at 62.5 g/ha [4] [%] | pest or weed control at 250 g/ha [4] [%] | pest or weed control at 15.625 g/ha [5] [%] | pest or weed control at 62.5 g/ha [5] [%] | pest or weed control at 250 g/ha [5] [%] | pest or weed control at 15.625 g/ha [6] [%] | pest or weed control at 62.5 g/ha [6] [%] | pest or weed control at 250 g/ha [6] [%] | pest or weed control at 15.625 g/ha [7] [%] | pest or weed control at 62.5 g/ha [7] [%] | also measured
CCOc1cc([C@@H]2CN(C)C(=O)[C@H]2C(=O)Nc2cccc(F)c2C)ccc1F (racemic) [Compound 1767] | 20 | 60 | 80 | 0 | 30 | 60 | 60 | 80 | 90 | 0 | 0 | 20 | 0 | 0 | 0 | 0 | 0 | 30 | 40 | 50 | pest or weed control at 250 g/ha [7]: 80%; plant injury at 15.625 g/ha (corn (Zea mays) [8]): 10%; plant injury at 62.5 g/ha (corn (Zea mays) [8]): 10%; plant injury at 250 g/ha (corn (Zea mays) [8]): 60%; pest or weed control at 15.625 g/ha [9]: 70%; pest or weed control at 62.5 g/ha [9, 13]: 70%; pest or weed control at 250 g/ha ([9]; 250 g ai/ha, evaluated after 13 days, 100=total damage to plant, 0=no damage to plant): 80%; pest or weed control at 15.625 g/ha [10]: 30%; pest or weed control at 62.5 g/ha [10]: 30%; pest or weed control at 250 g/ha [10]: 60%; pest or weed control at 15.625 g/ha [11]: 0%; pest or weed control at 62.5 g/ha [11]: 0%; pest or weed control at 250 g/ha [11]: 20%; pest or weed control at 15.625 g/ha [12]: 0%; pest or weed control at 62.5 g/ha [12]: 0%; pest or weed control at 250 g/ha [12]: 60%
CSc1ncccc1NC(=O)[C@H]1C(=O)N(C)C[C@@H]1c1ccc(C(F)(F)F)cc1 (racemic) [Compound 1786] | 0 | 0 | 20 | 0 | 0 | 0 | 0 | 0 | 80 | 0 | 0 | 0 | 0 | 0 | 40 | 0 | 0 | 30 | 0 | 0 | pest or weed control at 250 g/ha [7]: 0%; plant injury at 15.625 g/ha (corn (Zea mays) [8]): 0%; plant injury at 62.5 g/ha (corn (Zea mays) [8]): 0%; plant injury at 250 g/ha (corn (Zea mays) [8]): 0%; pest or weed control at 15.625 g/ha [9]: 0%; pest or weed control at 62.5 g/ha [9, 13]: 10%; pest or weed control at 15.625 g/ha [10]: 0%; pest or weed control at 62.5 g/ha [10]: 0%; pest or weed control at 250 g/ha [10]: 0%; pest or weed control at 15.625 g/ha [11]: 0%; pest or weed control at 62.5 g/ha [11]: 0%; pest or weed control at 250 g/ha [11]: 20%; pest or weed control at 15.625 g/ha [12]: 0%; pest or weed control at 62.5 g/ha [12]: 0%; pest or weed control at 250 g/ha [12]: 30%
